From patent US20230416196A1, “DIMER OF BIGUANIDINES AND THEIR THERAPEUTIC USES” (INSTITUT CURIE, priority 2020, published 2023)

What was measured:
[1] = tested on: EMT induction (E-cadherin, Fibronectin, Slug); assay: Western blot of epithelial and mesenchymal markers upon EMT induction; assay type: cell-based; conditions: TGF-β or OSM; FIG. 8D
Description: Cell culture. MCF7 (ATCC) cells, DU-145 (ATCC) cells and FC1245 cells were cultured in Dulbecco's Modified Eagle Medium GlutaMAX (DMEM, ThermoFisher Scientific, 61965059) supplemented with 10% Fetal Bovine Serum (FBS, Gibco, 10270-106) and Penicillin-Streptomycin mixture (BioWhittaker/Lonza, DE17-602E) unless stated otherwise. Primary lung circulating tumor cells (Celprogen, 36107-34CTC, Lot 219411) were grown using stem cell complete media (Celprogen, M36102-29PS) until the third passage. Circulating cancer cells were grown in stem cell ECM T75-flasks (Celprogen, E36102-29-T75) and ECM 6-well plates (Celprogen, E36102-29-6Well). […]
Western Blotting. […] Proteins were solubilized in 2× Laemmli buffer containing benzonase (VWR, 70664-3, 1:100), extracts were incubated at 37° C. for 1 h, and quantified using a NanoDrop 2000 spectrophotometer (ThermoFisher Scientific). […] Antigens were detected using the SuperSignal West Pico PLUS chemiluminescent detection kits (ThermoFisher Scientific, 34580 and 34096). Signals were recorded using a Fusion Solo S Imaging System (Vilber) and quantified as indicated using ImageJ. […]

[2] = tested on: biopsy-derived organoids of PDAC; assay: Chemograms on biopsy-derived organoids of pancreatic ductal adenocarcinoma; assay type: cell-based, human; conditions: 72 h, CellTiter-Glo 3D; FIG. 9
Source text: Biopsy-derived pancreatic organoid (BDPO) generation. BDPOs were obtained from endoscopic ultrasound-guided fine-needle aspirations (EUS-FNA) from patients with PDAC included under the PaCaOmics clinical trial (ClinicalTrials.gov: NCT01692873) after approval by the Paoli-Calmettes hospital ethics committee and following patient informed consent. Cultures were established as previously described. Briefly, PDAC biopsies were slightly digested with the Tumor Dissociation Kit (Miltenyi Biotec) at 37° C. for 5 minutes. The pancreatic tissue slurry was transferred into a tissue strainer 100 μm and was placed into 12-well plates coated with 150 μL GFR matrigel (Corning, Boulogne-Billancourt, France). […]
Chemograms on BDPO. […] 24 hours later, one plate was used directly for RNA preparation (Time 0 transcriptome) and on the other the medium was supplemented with increasing concentrations of each drug, 72 hours later cell viability was measured with CellTiter-Glo 3D (Promega) reagent quantified using the plate reader Tristar LB941 (Berthold Technologies). Values were normalized and expressed as the percentage of the control (vehicle), which represents 100% of normalized fluorescence. […]

HMLER CD44^high/CD24^low = assay: Cell viability assay (CellTiter-Blue) on breast cancer stem cell model HMLER CD44high/CD24low; assay type: cell-based, human
Description: Cell viability assay (IC50). Cell viability assay was carried out by plating 1000 cells/well in 96-well plates. Cells were treated for 72 h in a range between to 25 nM and […] using serial dilutions. The inventors followed the manufacturer's protocol. In brief, CellTiter-Blue® reagent (G8081, Promega) was added after 72 h treatment and cells were incubated for 3 h before recording fluorescence intensities (λex. 560/20 nm; λem. 590/10 nm) using a Perkin Elmer Wallac 1420 Victor2 Microplate Reader.
Cell culture. MCF7 (ATCC) cells, DU-145 (ATCC) cells and FC1245 cells were cultured in Dulbecco's Modified Eagle Medium GlutaMAX (DMEM, ThermoFisher Scientific, 61965059) supplemented with 10% Fetal Bovine Serum (FBS, Gibco, 10270-106) and Penicillin-Streptomycin mixture (BioWhittaker/Lonza, DE17-602E) unless stated otherwise. Primary lung circulating tumor cells (Celprogen, 36107-34CTC, Lot 219411) were grown using stem cell complete media (Celprogen, M36102-29PS) until the third passage. Circulating cancer cells were grown in stem cell ECM T75-flasks (Celprogen, E36102-29-T75) and ECM 6-well plates (Celprogen, E36102-29-6Well). HMLER cells ([…]) naturally repressing E-cadherin, obtained from human mammary epithelial cells infected with a retrovirus carrying hTERT, SV40 and the oncogenic allele H-rasV12, and HMLER CD44 and TFRC ko clones were cultured in DMEM/F12 (Thermo Fisher Scientific, 31331093) supplemented with 10% FBS (Thermo Fisher Scientific, 10270106), 10 μg/mL insulin (Sigma-Aldrich, 10516), 0.5 μg/mL hydrocortisone (Sigma-Aldrich, H0888) and 0.5 μg/mL puromycin (Life Technologies, A11138-02), unless stated otherwise. HMLER CD44^high cells were also supplemented with 10 ng/mL EGF (Miltenyi Biotech, 130-097-750).

neutrophils = assay: Activation of neutrophils (CD64, CD66b flow cytometry); assay type: cell-based, human; conditions: LCC-12 10 μM, 1 h, LPS; FIG. 6C
Description: Neutrophils. Peripheral blood samples were collected from healthy donors (Etablissement Français du Sang). Then, red cells in whole blood samples were lysed (ebioscience 10×RBC lysis buffer, 00-4300-54). The remaining cells were cultured in RPMI 1640 supplemented with glutamine, and 2% human serum, and activated 1 h with LPS (2 μg/mL) in presence of LCC-12 (10 μM). The granulocytes/neutrophils population was determined by flow cytometry using FSC, SSC and CD15 surface marker. The activation status of the granulocytes was assessed by measuring CD64 and CD66b surface markers by flow cytometry.

Structure (SMILES): N=C(N)NC(=N)NCCCCCCCCCCCCNC(=N)NC(=N)N [LCC-12, lipophilic copper clamp C12]
- EMT induction (E-cadherin, Fibronectin, Slug levels) [1]: antagonized EMT induction
- efficacy (IC50) on biopsy-derived organoids of PDAC [2]: low micromolar range
- improved IC50 compared with metformin (HMLER CD44^high/CD24^low; HMLER CD44high/CD24low): more than 2800 fold
- IC50 (HMLER CD44^high/CD24^low; Homo sapiens, cell viability, 72 h treatment, read-out: IC50 against HMLER CD44^high/CD24^low): 8 µM
- activation of neutrophils in vitro (neutrophils): does not impact the activation
